Results published in patent US20250333745A1, “METHODS AND COMPOSITIONS FOR TREATMENT OF POLYCYSTIC KIDNEY DISEASE” (Regulus Therapeutics Inc., priority 2016, published 2025).

Legend:
Pcy mice = assay: Previous study of tool anti-miR-17 in Pcy mice; assay type: in vivo, mouse; settings: 50 mg/kg once weekly for 26 weeks
Procedure: Previous studies using a research tool anti-miR-17 compound identified a role for miR-17 in PKD in two different models of PKD, the Pkd2-KO model (also known as the Pkhd1/cre; Pkd2^F/F model) and the Pcy model. The research tool modified oligonucleotide complementary to miR-17 was tested in mouse models of PKD. The anti-miR-17 compound was a fully phosphorothioated oligonucleotide 19 linked nucleosides in length (5′-CTGCACTGTAAGCACTTTG-3′; SEQ ID NO: 7), with DNA, 2′-MOE and S-cEt sugar moieties.
Pcy mice bearing a mutation in Nphp3 spontaneously develop polycystic kidney disease, with a slower progression of disease than that observed in the Pkd2-KO mice. Mice were treated with 50 mg/kg of tool anti-miR-17 compound, or with PBS, once weekly for a total of 26 weeks. The mean ratio of kidney weight to body weight in the Pcy mice treated with anti-miR-17 was 19% lower than the mean ratio of kidney weight to body weight in the Pcy mice administered PBS only (p=0.0003).

[1] = Tissue accumulation in kidney and liver (kidney-to-liver ratio); assay type: in vivo, mouse; settings: single dose 30 mg/kg, seven days
Procedure: Pharmacokinetic properties and tissue distribution of select compounds were assessed in wild type C57BL6 mice and JCK mice (an experimental model of PKD). Compound was administered to wild type mouse at a dose of 0.3, 3, or 30 mg/kg, or to JCK mice at a dose of 3, 30, or 100 mg/kg. After seven days, mice were sacrificed. Kidney and liver tissues were collected. Concentration of anti-miR-17 compound was measured in liver and kidney. Compounds that accumulate to a greater level in kidney, relative to liver (i.e., have a higher kidney-to-liver ratio) were preferred.
The miPSA was used to assess the potency of each compound, measured by the displacement score, in wild type and JCK mice. Tissue accumulation of anti-miR-17 compound was measured by extraction of compound using liquid-liquid extraction (LLE) and/or solid-phase extraction (SPE), followed by analysis of the identity and concentration of compound using ion-pairing-reversed-phase high performance liquid chromatography coupled with time-of-flight mass spectrometry (IP—RP-HPLC-TOF).
Wild type mice were administered a single dose of 3 mg/kg for the miPSA analysis, and a single dose of 30 mg/kg for the tissue accumulation analysis. JCK mice were administered a single dose of 30 mg/kg for both the miPSA and tissue accumulation analyses. Kidney tissue was collected seven days following the administration of anti-miR-17 compound. […] A higher kidney-to-liver ratio is generally preferred for a disease where the primary site of action is the kidney.

IFIT = assay: In vivo acute assay in Sv129 mice; parameters: species or system mouse; settings: single s.c. 300 mg/kg, four days, relative to PBS
Procedure: Additional in vivo toxicology assessments were performed by administering to normal mice (Sv129 mice) a single subcutaneous injection of 300 mg/kg of anti-miR-17 compound. After four days, mice were sacrificed, blood was collected for serum chemistry analysis, liver and spleen were weighed, and RNA was isolated from kidney and liver tissues. The expression level of a pro-inflammatory gene, interferon-induced protein with tetratricopeptide repeats (IFIT), was measured.
An in vivo assay was performed in normal, Sv129 mice. A single, subcutaneous dose of 300 mg/kg of RG4326 was administered. Included as control treatments were PBS, and two anti-miRs not related to miR-17, one known to be pro-inflammatory (positive control) and one that is not pro-inflammatory (negative control). Four days later, mice were sacrificed. Kidney and liver tissue was isolated for RNA extraction. The level of a gene known to be induced during an inflammatory response, IFIT, was measured and normalized to mouse GAPDH. A log 2 transformation of the fold change (Log2-FC) relative to PBS treatment was performed.

[2] = Pharmacokinetic profile after three 10 mg/kg subcutaneous injections in C57BL6 and JCK mice; assay type: in vivo, mouse; settings: three 10 mg/kg s.c.; for % Parent: after 21 days
Procedure: The pharmacokinetic behavior of RG4326 was further characterized in wild type (C57B16) mice and PKD (JCK) mice. Groups of 5 mice each received three 10 mg/kg subcutaneous injections on each of three consecutive days. At one, four, seven, 14 and 21 days after the third and final injection, mice were sacrificed and plasma, kidney and liver samples were collected. For measurement of RG4326, RG4326 was extracted using liquid-liquid extraction (LLE) and/or solid-phase extraction (SPE), which was then analyzed for identity and concentration using ion-pairing-reversed-phase high performance liquid chromatography coupled with time-of-flight mass spectrometry (IP—RP-HPLC-TOF).

[3] = In vitro metabolic stability in monkey liver lysate; assay type: in vitro ADME; settings: 24-hour incubation of RG4326
Procedure: (§1) Due to their reduced capacity for serum protein binding, which is a property that drives oligonucleotide distribution in the body, short oligonucleotides are not necessarily expected to have pharmacokinetic properties that make them suitable for use as drugs. RG4326 was incubated in mouse, monkey or human liver homogenate. The identity and concentration of RG4326 and metabolites was determined after a 24-hour incubation. RG4326 and metabolites were extracted using liquid-liquid extraction (LLE) and/or solid-phase extraction (SPE), which were then analyzed for identity and concentration using ion-pairing-reversed-phase high performance liquid chromatography coupled with time-of-flight mass spectrometry (IP—RP-HPLC-TOF).

miR-106b = miR-106b luciferase reporter assay in HeLa cells; assay type: cell-based; settings: anti-miR-17 at 100 nm
Procedure: Additional in vitro assays were conducted to further explore the potency of RG4326. A luciferase reporter assay was used to test the ability of RG4326 to inhibit the miR-17 family members miR-17, miR-20a, miR-93, and miR-106b. A luciferase reporter plasmid for each of miR-20a, miR-93, and miR-106b was constructed, with a fully complementary microRNA binding site in the 3′-UTR of the luciferase gene. HeLa cells were transfected with the microRNA mimic and its cognate luciferase reporter, followed by transfection with anti-miR-17 at a dose of 100 nm. […] As RG4326 is 100% complementary to the other miR-17 family members not tested, miR-20b and […], it is expected to inhibit these microRNAs as well.

[4] = In vitro metabolic stability in human liver lysate; assay type: in vitro ADME; settings: 24-hour incubation of RG4326
Procedure: as §1

## 5′-CTGCACTGTAAGCACTTTG-3′ (all phosphorothioate, sugars by position and methylation of C not given here; DNA, 2'-MOE and S-cEt sugars) [Tool anti-miR-17, reference compound]
Pcy mice; p=0.0003
  mean ratio of kidney weight to body weight lower than PBS only: 19%
Pcy mice; p=0.008
  mean reduction in cyst index compared to PBS only: 28%

## COC1C(OP(=O)(S)OC[C@H]2O[C@@H](n3cnc4c(N)ncnc43)C(F)C2OP(=O)(S)OC[C@H]2O[C@@H](n3ccc(N)nc3=O)C(F)C2OP(=O)(S)OC[C@H]2O[C@@H](n3ccc(=O)[nH]c3=O)C(F)C2OP(=O)(S)OC[C@H]2O[C@@H](n3ccc(=O)[nH]c3=O)C(OC)C2OP(=O)(S)OC[C@]23O[C@@H](n4ccc(=O)[nH]c4=O)C(O[C@H]2C)C3OP(=O)(S)OC[C@]23O[C@@H](n4cnc5c(=O)[nH]c(N)nc54)C(O[C@H]2C)C3O)[C@@H](COP(=O)(S)OC2C3O[C@@H](C)[C@]2(COP(=O)(S)OC2C4O[C@@H](C)[C@]2(CO)O[C@H]4n2cnc4c(N)ncnc42)O[C@H]3n2cnc3c(=O)[nH]c(N)nc32)O[C@H]1n1ccc(N)nc1=O (stereo in doubt) [RG4326, ASGSCMAFCFUFUMUSGS]
[1]; JCK mice
  Kidney-to-Liver Ratio PKD Mice: 6.0
[1]; wild type mice
  Kidney-to-Liver Ratio Wild Type Mice: 9.8
IFIT
  In Vivo Acute Assay Kidney IFIT expression (Log2-FC): 0.34 (n = 1) Log2-FC
  In Vivo Acute Assay Liver IFIT expression (Log2-FC): 0.21 ± 0.08 Log2-FC
[2]; Normal C57BL6 mice, Kidney
  AUC0-21 days: 282 µg·days/g
  C24 h: 61.4 µg/g
  % Parent: >90%
[2]; Normal C57BL6 mice, Liver
  AUC0-21 days: 17 µg·days/g
  C24 h: 1.6 µg/g
  % Parent: >90%
[2]; Normal C57BL6 mice
  K/L Ratio (AUC): 17
  K/L Ratio (C24 h): 38
[2]; PKD JCK mice, Kidney
  AUC0-21 days: 497 µg·days/g
  C24 h: 66.5 µg/g
  % Parent: >90%
[2]; PKD JCK mice, Liver
  AUC0-21 days: 37 µg·days/g
  C24 h: 5.9 µg/g
  % Parent: >90%
[2]; PKD JCK mice
  K/L Ratio (AUC): 13
  K/L Ratio (C24 h): 11
[2]; both plasma and tissues, C57B16 and JCK mice
  parent compound remaining after 21 days: over 90%
[3]
  Ex Vivo Liver Lysate (% Analyte), Monkey: 95.9%
miR-106b
  Mean luciferase fold derepression, miR-106b: 17.7
[4]
  Ex Vivo Liver Lysate (% Analyte), Human: 98.7%
